Assay [1] deals with CXCR4-expressing U937 monocytic cells. Kind of assay: Leukocyte chemotaxis assay (Transwell, U937 monocytes over epithelial monolayers). The class given is cell-based, human. As for the experimental part:
Leukocyte chemotaxis assay. HT29 or HCT116 cells were plated and grown to confluence in 24-well dishes. Cells were then serum starved for 2 days. Calcein-AM (Molecular Probes) loaded U937 monocytes (5×10^5) were plated to the upper well of a Transwell chemotaxis chamber (5 μm pore size, Corning Costar, Corning, N.Y.), with the serum-starved epithelial monolayers in the bottom chamber. U937-epithelial co-cultures were supplemented with the CXCR4 receptor antagonist AMD3100 (5 μg/ml) or remain untreated as a control. U937 cells were incubated without epithelial cells or, as a separate control, epithelial cells alone, were used to establish constitutive chemotaxis or auto-fluorescence respectively. U937 cells were incubated with epithelial cells for 3 hr and the number of migrated calcein-loaded monocytes in the bottom chamber quantified by fluorescence spectroscopy (Victor Wallac, Perkin Elmer).

The next assay addresses T1, Dnmt1 (Homo sapiens, UniProt P26358).
T1 construct: endogenous in cells; host or cells: HCT116 (ATCC CCL-247)
Kind of assay: Immunoblot of extractable Dnmt1 in 5-aza-treated HCT116 cells. It counts as cell-based. The note with it: increasing concentrations of 5-aza. The text has this:
(§1) Human colorectal carcinoma cell lines. HT29 (HTB-38), HCT116 (CCL-247), Caco2 (HTB-37), T84 (CCL-248) colonic carcinoma cells were purchased from the American Type Culture Collection (ATCC, Rockville, Md.) and maintained as previously described (Smith, J. M., et al. (2005) Am. J. Physiol Gastrointest. Liver Physiol 288, 316-26; Dwinell, M. B., et al. (2001) Gastroenterology 120, 49-59). Dnmt1, Dnmt3b or Dnmt1/Dnmt3b double knockout HCT116 cells were the kind gift of Dr. Bert Vogelstein (John Hopkins University School of Medicine) and were maintained similarly to wild-type HCT116 cells. In some experiments, carcinoma cells were treated with 5-aza (EMD Biosciences, La Jolla, Calif.) every 24 hr for the indicated number of days.
Immunoblot analysis. For the detection of Dnmt1, Dnmt3b and actin, whole cell lysates were prepared as previously described (Smith, J. M., Johanesen, P. A., Wendt, M. K., Binion, D. G., and Dwinell, M. B. (2005). CXCL12 activation of CXCR4 regulates mucosal host defense through stimulation of epithelial cell migration and promotion of intestinal barrier integrity. Am. J. Physiol Gastrointest. Liver Physiol 288, 316-26), and 10 or 25 μg of protein size separated using reducing SDS-PAGE. Equal protein loading was confirmed by Coomassie blue staining. […]

The test system of another assay is CXCL12 promoter. Kind of assay: Methylation-specific PCR of the CXCL12 promoter in 5-aza-treated cells. The class given is cell-based, human.
The test system of another assay is CXCL12 mRNA expression. Kind of assay: RT-PCR analysis of CXCL12 and CXCR4 mRNA in 5-aza-treated colonic carcinoma cells. The class given is cell-based, human. Conditions: for CXCL12 mRNA expression: indicated concentrations for five days.
Excerpt: as §1
RT-PCR analysis. Total RNA was isolated from cultured cells and colonic crypt epithelium using TRIzol reagent (Invitrogen, Carlsbad, Calif.), DNase treated (Ambion, Austin, Tex.) and 2 μg of total RNA was converted to cDNA via reverse transcription using random priming in a 40 μl volume. CXCL12, CXCR4, and β-actin mRNA transcripts were amplified using previously described PCR primers and conditions (Heidemann, J., et al. (2004) Am. J. Physiol Gastrointest. Liver Physiol 286, G1059-G1068; Smith, J. M., et al. (2005) Am. J. Physiol Gastrointest. Liver Physiol 288, 316-26). Other PCR analyses were conducted using listed primer pairs and conditions (Table S1). […] in cDNA synthesis reactions as a negative control.

In assay [2] the test system is CXCL12 protein expression. Kind of assay: Immunofluorescence microscopy of CXCL12 protein in 5-aza-treated HCT116 cells. The class given is cell-based, human. The note with it: 2.5 μM 5-aza, 3 days. How it is done: Immunofluorescence microscopy. HCT116 epithelial cells were plated to glass chamber slides and grown for 3-days in untreated or 5-aza containing media. Cells were stained with mouse mAb specific for CXCL12 (clone #79018.111, R&D Systems) or a nonspecific mouse IgG control antibody (BD Pharmingen, San Jose, Calif.). CXCL12 protein and IgG background staining was visualized using Alexa Fluor 594 conjugated goat anti-mouse antibody (Molecular Probes, Eugene, Oreg.). Nuclei were visualized with a DAPI counterstain.

T1 sequence (P26358 whole entry): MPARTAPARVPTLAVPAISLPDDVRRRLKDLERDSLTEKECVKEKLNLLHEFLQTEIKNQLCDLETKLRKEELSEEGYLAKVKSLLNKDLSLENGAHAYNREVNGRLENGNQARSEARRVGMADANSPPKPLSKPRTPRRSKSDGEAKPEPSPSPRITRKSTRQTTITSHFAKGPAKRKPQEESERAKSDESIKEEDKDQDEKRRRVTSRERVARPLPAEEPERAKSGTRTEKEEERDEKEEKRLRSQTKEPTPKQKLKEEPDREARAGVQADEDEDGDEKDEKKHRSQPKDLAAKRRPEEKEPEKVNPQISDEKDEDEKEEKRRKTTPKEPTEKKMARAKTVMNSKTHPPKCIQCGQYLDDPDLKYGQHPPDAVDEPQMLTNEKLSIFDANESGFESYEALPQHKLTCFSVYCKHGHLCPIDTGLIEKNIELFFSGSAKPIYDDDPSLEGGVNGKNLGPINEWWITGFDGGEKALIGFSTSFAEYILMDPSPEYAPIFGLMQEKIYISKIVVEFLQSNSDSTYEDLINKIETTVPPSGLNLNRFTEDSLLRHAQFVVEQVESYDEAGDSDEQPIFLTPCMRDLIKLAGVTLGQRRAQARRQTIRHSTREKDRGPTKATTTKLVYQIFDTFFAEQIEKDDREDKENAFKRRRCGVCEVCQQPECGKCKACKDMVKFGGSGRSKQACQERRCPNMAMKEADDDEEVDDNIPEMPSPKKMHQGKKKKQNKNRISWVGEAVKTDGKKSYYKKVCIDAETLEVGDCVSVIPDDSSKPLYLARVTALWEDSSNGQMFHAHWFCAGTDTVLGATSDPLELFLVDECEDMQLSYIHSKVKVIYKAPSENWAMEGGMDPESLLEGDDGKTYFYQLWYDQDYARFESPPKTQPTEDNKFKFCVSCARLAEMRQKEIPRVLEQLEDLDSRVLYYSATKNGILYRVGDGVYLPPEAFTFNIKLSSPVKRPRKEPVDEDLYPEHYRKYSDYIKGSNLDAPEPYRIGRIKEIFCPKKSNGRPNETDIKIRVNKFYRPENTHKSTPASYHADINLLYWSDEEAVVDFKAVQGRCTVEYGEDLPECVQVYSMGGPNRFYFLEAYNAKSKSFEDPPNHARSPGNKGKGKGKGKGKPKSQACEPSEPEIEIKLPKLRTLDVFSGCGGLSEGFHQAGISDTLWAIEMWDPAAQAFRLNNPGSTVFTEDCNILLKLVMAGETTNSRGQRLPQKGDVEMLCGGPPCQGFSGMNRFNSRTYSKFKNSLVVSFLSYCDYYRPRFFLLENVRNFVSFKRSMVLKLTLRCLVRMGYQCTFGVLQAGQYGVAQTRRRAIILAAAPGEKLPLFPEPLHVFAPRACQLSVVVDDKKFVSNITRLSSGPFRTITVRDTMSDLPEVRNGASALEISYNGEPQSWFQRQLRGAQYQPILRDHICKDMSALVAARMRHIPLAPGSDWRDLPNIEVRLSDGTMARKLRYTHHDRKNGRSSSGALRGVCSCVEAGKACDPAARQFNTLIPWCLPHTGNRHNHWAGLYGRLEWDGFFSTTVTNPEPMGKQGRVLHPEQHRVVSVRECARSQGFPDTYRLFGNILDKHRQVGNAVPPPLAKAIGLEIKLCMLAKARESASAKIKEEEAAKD
Procedure for CXCL12 promoter: Methylation Specific PCR and Bisulphite Sequencing PCR. Genomic DNA from cell lines and colonic crypt preparations was isolated using the Genomic DNA wizard kit (Promega, Madison, Wis.) or TRIzol according to the manufacturer's instructions. […] DNA (2 μg) was denatured in 0.3M NaOH at 42° C. for 20 min in a 111 μl reaction volume. To this 1.2 ml of sodium bisulphite solution (4.5M NaHSO3, 0.02M hydroquinone, and pH 5.0) was added and incubated 16 hrs at 55° C. This reaction was desalted using DNA Purification Wizard (Promega) and the DNA was desulfonated in 0.3M NaOH at 37° C. for 20 min. The converted DNA was precipitated at −20° C., overnight in 75% ethanol containing 0.7M ammonium acetate and 0.05 mg/ml of glycogen, reconstituted in 50 μl of water, and 4.0 μl used in each 50 μl PCR reaction using 0.5 μM of specific MSP primers (Table S1).

On to `c1cc(CN2CCCNCCNCCCNCC2)ccc1CN1CCCNCCNCCCNCC1` [AMD3100], for which the “chemotaxis of U937 cells toward CXCL12-expressing HT29 and HCT116 cells” value in assay [1] (AMD3100 5 μg/ml, 3 hr) is “potently blocked migration”.

Regarding “CXCL12: alpha type 7.8 kDa CXC chemokine, here secreted by stably transfected HT29 and HCT116 cells”, the “ability to stimulate chemotaxis of U937 cells” value in assay [1] (CXCL12 secreted from HT29 and HCT116 stable transfectants) was “functional”.

With `Nc1ncn([C@H]2C[C@H](O)[C@@H](CO)O2)c(=O)n1` [5-aza, 5-aza-2′-deoxycytidine], the “extractable levels of Dnmt1” value on Dnmt1 is “ablated”. Besides, the “methylation of the CXCL12 promoter” value is “inhibited” in the assay with CXCL12 promoter (HCT116 cells, 2.5 μM 5-aza, 3 days) and “inhibited” in the assay with CXCL12 promoter (HT29 cells (data not shown)). In addition, the CXCL12 gene re-expression result in the assay with CXCL12 mRNA expression (Caco2 cells (data not shown)) and in the assay with CXCL12 mRNA expression (T84 cells (data not shown)) was “similarly fostered gene re-expression” throughout. Moreover, the “CXCL12 mRNA expression” value with CXCL12 mRNA expression (HCT116 cells) and in the assay on CXCL12 mRNA expression (HT29 cells) was “dose-dependently restored” each time. The “CXCR4 mRNA levels” value in the assay on CXCL12 mRNA expression (HT29 and HCT116 cells with 5-aza treatment) is “remained unchanged”. For the same compound, the “time of maximal CXCL12 re-expression” value with CXCL12 mRNA expression (HT29 or HCT116 cells, 2.5 μM 5-aza for 3-6 days) worked out at 5 days. Also, in assay [2], the “CXCL12 protein expression by immunofluorescence” value is “detected”.

The values are drawn from patent US8404640B2 (priority 2006, dated 2013).
